This is an account of results in PMC9853847 (2023).

Holding throughout (experiment): FRET titration (MLCT donor to Cy5.5-labeled DNA), dose-response fit
Assay [1] deals with mismatch 1 duplex (27-mer, CC mismatch at 4 bp) (DNA, mismatch bulge abasic) GACCAGCTTATCACCCCTAGATACCAT/ATGGTATCTAGGGGTGATAAGCTCGTC
Conditions: 200 mM NaCl; 5 mM Tris, pH 7.5; 1 μM DNA.

The subject of assay [2] is mismatch 3 duplex (27-mer, CC mismatch at 24 bp) (DNA, mismatch bulge abasic) GACCAGCTTATCACCCCTAGATACCAT/ATGCTATCTAGGGGTGATAAGCTGGTC
Conditions: 200 mM NaCl; 5 mM Tris, pH 7.5; 1 μM DNA.

The subject of assay [3] is 20-mer duplex (DNA, duplex) TGAGGATGTGTAGGTTGATG/CATCAACCTACACATCCTCA
The note with it: 200 mM NaCl; 5 mM Tris, pH 7.5; 1 μM DNA.

Assay [4] relates to matched duplex (27-mer) (DNA, duplex) GACCAGCTTATCACCCCTAGATACCAT/ATGGTATCTAGGGGTGATAAGCTGGTC
The note with it: 200 mM NaCl; 5 mM Tris, pH 7.5; 1 μM DNA.

For assay [5], the system named is 3WJ (three-way junction) (DNA, junction) TGAGGATGTGTAGGTTGATG/CATCAACCTAAGAATGAGAC/GTCTCATTCTCACATCCTCA
Conditions: 200 mM NaCl, 5 mM Tris, pH 7.5, 1 μM DNA.

Assay [6] concerns G-quadruplex (G4) (DNA, G4) AGGGTTAGGGTTAGGGTTAGGG
Conditions: 100 mM KCl, 10 mM Tris.HCl, pH 7.4, 1 μM DNA.

The subject of assay [7] is mismatch 2 duplex (27-mer, CC mismatch at 14 bp) (DNA, mismatch bulge abasic) GACCAGCTTATCACCCCTAGATACCAT/ATGGTATCTAGGGCTGATAAGCTGGTC
The note with it: 200 mM NaCl; 5 mM Tris, pH 7.5; 1 μM DNA.

The mark [8] stands for this setting: not saturated, tested up to 20 μM.

Molecules are shown by their SMILES. A value given as a limit tells only on which side of the number the result lay.

As usually defined, the Kd is a measure of binding affinity in units of concentration. On to `Cc1ccc(-c2ccc(C)cn2)nc1.Cc1ccc(-c2ccc(C)cn2)nc1.[Ru+2].c1ccc2nc3c4cccnc4c4ncccc4c3nc2c1`, for which the Kd in assay [1] came to 4.6 ± 0.6 µM; in assay [2] it was 5.1 ± 0.3 µM; in assay [3] it was 2.3 ± 0.5 µM; in assay [4] it was 4.7 ± 0.1 µM; in assay [5] it was 4.4 ± 0.7 µM; in assay [6], 3.8 ± 1.7 µM. Besides, the dissociation constant (Kd) in assay [7] was determined as 4.3 ± 0.6 µM.
For `Cc1ccc(-c2ccc(C)cn2)nc1.[Ru+2].c1ccc(-c2nc3c4cccnc4c4ncccc4c3[nH]2)cc1.c1ccc(-c2nc3c4cccnc4c4ncccc4c3[nH]2)cc1`, the Kd in assay [1] was 7.3 ± 2.5 µM; in assay [2], 7.6 ± 1.9 µM; in assay [3] it was 2.6 ± 1.0 µM; in assay [4], 7.9 ± 2.5 µM; in assay [5] it was 6.4 ± 0.3 µM; in assay [6] (setting [8]) it was above 20 µM. Further, the Kd in assay [7] was above 20 µM.
Turning to `Cc1ccc(-c2ccc(C)cn2)nc1.[Ru+2].c1ccc2nc3c4cccnc4c4ncccc4c3nc2c1.c1ccc2nc3c4cccnc4c4ncccc4c3nc2c1`, the dissociation constant Kd was 6.4 ± 1.7 µM in assay [1]; 8.1 ± 3.7 µM in assay [2]; 6.3 ± 0.3 µM in assay [3]; 8.1 ± 1.7 µM in assay [4]; above 20 µM in assay [5] (tested up to 20 μM); above 20 µM in assay [6] (setting [8]). Further, the Kd in assay [7] was determined as 8.3 ± 3.0 µM.
In the case of `[Ru+2].c1ccc(-c2ccccn2)nc1.c1ccc(-c2ccccn2)nc1.c1ccc2nc3c4cccnc4c4ncccc4c3nc2c1`, the Kd in assay [1] was 5.0 ± 0.7 µM; in assay [2], 6.5 ± 1.8 µM; in assay [3] it was 2.8 ± 0.9 µM; in assay [4] it was 5.1 ± 0.4 µM; in assay [5], 4.3 ± 0.9 µM; in assay [6], 3.9 ± 1.3 µM. Further, the dissociation constant Kd in assay [7] was found to be 5.3 ± 0.6 µM.
